In the NIST ThermoML archive (doi:10.1021/je8002699):
Where “and” joins values, the source holds several entries; their conditions need not be identical. Equal values may be shown once. Numbers after ± are expanded uncertainties.

Columns and labels:
[1] = for mass density / speed of sound / viscosity: Liquid
[2] = refractive index (Na D-line) (dimensionless); conditions: 101.33 kPa, Liquid
[3] = xn = mol fraction of the nth substance listed; conditions: x2 = 0; for mass density / speed of sound / viscosity: 101 kPa, Liquid
[4] = refractive index (Na D-line) (dimensionless); xn = mol fraction of the nth substance listed; conditions: 101 kPa, Liquid, x2 = 0

| SMILES | surface tension liquid-gas ([1]; 303.15 K) [mN/m] | mass density ([1]; 303.15 K, 101 kPa) [kg/m3] | speed of sound ([1]; 303.15 K, 101 kPa) [m/s] | viscosity ([1]; 303.15 K, 101 kPa) [mPa·s] | surface tension liquid-gas ([1]; 313.15 K) [mN/m] | mass density ([1]; 313.15 K, 101 kPa) [kg/m3] | speed of sound ([1]; 313.15 K, 101 kPa) [m/s] | viscosity ([1]; 313.15 K, 101 kPa) [mPa·s] | surface tension liquid-gas ([1]; 323.15 K) | mass density ([1]; 323.15 K, 101 kPa) [kg/m3] | speed of sound ([1]; 323.15 K, 101 kPa) [m/s] | viscosity ([1]; 323.15 K, 101 kPa) [mPa·s] | refractive index ([2]; 303.15 K) | refractive index ([2]; 313.15 K) | refractive index ([2]; 323.15 K) | surface tension liquid-gas ([3]; 303.15 K) [mN/m] | mass density ([3]; 303.15 K) [kg/m3] | speed of sound ([3]; 303.15 K) [m/s] | viscosity ([3]; 303.15 K) [mPa·s] | surface tension liquid-gas ([3]; 313.15 K) [mN/m] | also measured |
| --- | --- | --- | --- | --- | --- | --- | --- | --- | --- | --- | --- | --- | --- | --- | --- | --- | --- | --- | --- | --- | --- |
| CCc1ccccc1 [ethylbenzene] | 30.01 ± 0.86 | 867 ± 3.9 | 1335 ± 6 | 0.577 ± 0.047 | 29.04 ± 0.83 | 842 ± 3.9 | 1289 ± 6 | 0.5914 ± 0.048 | 28.12 ± 0.81 mN/m | 832.1 ± 4.1 | 1204 ± 5 | 0.4841 ± 0.041 | 1.4985 ± 0.0026 | 1.4901 ± 0.0026 | 1.4821 ± 0.0026 | – | – | – | – | – | – |
| Cc1ccccc1 [toluene] | – | – | – | – | – | – | – | – | – | – | – | – | – | – | – | – | – | – | – | – | viscosity ([1]; 298.15 K, 101.33 kPa, Capillary tube (Ostwald / Ubbelohde) method): 0.555 ± 0.0042 mPa·s; mass density ([1]; 298.15 K, 101.33 kPa, Pycnometric method): 862.4 ± 1 kg/m3 |
| O=[N+]([O-])c1ccccc1 [nitrobenzene] + CC(=O)CC(C)(C)O | – | – | – | – | – | – | – | – | – | – | – | – | – | – | – | 40.9 ± 1.1 | 1200 ± 10 | 1413 ± 6 | 1.617 ± 0.076 | 38.24 ± 1.1 | mass density ([3]; 313.15 K): 1196 ± 11 kg/m3; speed of sound ([3]; 313.15 K): 1318 ± 6 m/s; viscosity ([3]; 313.15 K): 1.465 ± 0.069 mPa·s; surface tension liquid-gas ([3]; 323.15 K): 36.47 ± 1 mN/m; mass density ([3]; 323.15 K): 1185 ± 12 kg/m3; speed of sound ([3]; 323.15 K): 1221 ± 5 m/s; viscosity ([3]; 323.15 K): 1.343 ± 0.064 mPa·s; refractive index ([4]; 303.15 K): 1.5504 ± 0.005; refractive index ([4]; 313.15 K): 1.5476 ± 0.005; refractive index ([4]; 323.15 K): 1.5435 ± 0.005 |
| CC(=O)CC(C)(C)O [4-hydroxy-4-methylpentan-2-one] | 29.44 ± 0.85 | 936 ± 7.8 | 1256 ± 6 | 2.89 ± 0.13 | 28.92 ± 0.84 | 912 ± 8.3 | 1183 ± 5 | 2.791 ± 0.13 | 28.12 ± 0.82 mN/m and 27.12 ± 0.8 mN/m | 901 ± 8.9 | 1121 ± 5 | 2.67 ± 0.12 | 1.4239 ± 0.005 | 1.4198 ± 0.005 | 1.4151 ± 0.005 | – | – | – | – | – | mass density ([1]; 293.15 K, 101 kPa): 938 ± 7 kg/m3; viscosity ([1]; 293.15 K, 101 kPa): 2.89 ± 0.13 mPa·s |
| CCc1ccccc1 [ethylbenzene] + CC(=O)CC(C)(C)O | – | – | – | – | – | – | – | – | – | – | – | – | – | – | – | 30.01 ± 0.86 | 867 ± 3.9 | 1335 ± 6 | 0.577 ± 0.047 | 29.04 ± 0.83 | mass density ([3]; 313.15 K): 842 ± 3.9 kg/m3; speed of sound ([3]; 313.15 K): 1289 ± 6 m/s; viscosity ([3]; 313.15 K): 0.5914 ± 0.048 mPa·s; surface tension liquid-gas ([3]; 323.15 K): 28.12 ± 0.81 mN/m; mass density ([3]; 323.15 K): 832.1 ± 4.1 kg/m3; speed of sound ([3]; 323.15 K): 1204 ± 5 m/s; viscosity ([3]; 323.15 K): 0.4841 ± 0.041 mPa·s; refractive index ([4]; 303.15 K): 1.4985 ± 0.0026; refractive index ([4]; 313.15 K): 1.4901 ± 0.0026; refractive index ([4]; 323.15 K): 1.4821 ± 0.0026 |
| O=[N+]([O-])c1ccccc1 [nitrobenzene] | 40.9 ± 1.1 | 1200 ± 10 | 1413 ± 6 | 1.617 ± 0.076 | 38.24 ± 1.1 | 1196 ± 11 | 1318 ± 6 | 1.465 ± 0.069 | 36.47 ± 1 mN/m | 1185 ± 12 | 1221 ± 5 | 1.343 ± 0.064 | 1.5504 ± 0.005 | 1.5476 ± 0.005 | 1.5435 ± 0.005 | – | – | – | – | – | – |
